Results on eight compounds are retold here after ChEMBL document CHEMBL1759880, “A facile, one-pot synthesis, characterization and antimicrobial activity of o-hydroxy anilide derivatives and 1-substituted-1,3-dicyclohexylurea analogs of long chain carboxylic acids” (2011).

Values after ≈ are worked out from the molar mass of the structure shown.

Assay [1] deals with Candida albicans. The assay is described as follows: Antifungal activity against Candida albicans after 3 to 4 days by disc diffusion method. In kind it is functional. (A growth-free zone around the sample is the usual read-out of agar diffusion tests.)
The subject of assay [2] is Talaromyces marneffei. Briefly: Antifungal activity against Penicillium marneffei after 3 to 4 days by disc diffusion method. In kind it is functional.
For assay [3], the system named is Klebsiella pneumoniae. The assay is described as follows: Antibacterial activity against Klebsiella pneumoniae clinical isolate after 24 hrs by broth dilution technique. In kind it is functional. Background: Dilution methods test growth across graded concentrations, often in twofold steps.
Assay [4] deals with Staphylococcus aureus. Briefly: Antibacterial activity against Staphylococcus aureus ATCC 25923 after 24 hrs by disc diffusion method. In kind it is functional.
Assay [5] deals with Escherichia coli. The assay is described as follows: Antibacterial activity against Escherichia coli ATCC 25922 after 24 hrs by disc diffusion method. In kind it is functional.
The subject of assay [6] is Trichophyton mentagrophytes. The assay is described as follows: Antifungal activity against Trichophyton mentagrophytes after 3 to 4 days by disc diffusion method. In kind it is functional.
Assay [7] has as its system Pseudomonas aeruginosa. Briefly: Antibacterial activity against Pseudomonas aeruginosa ATCC 27853 after 24 hrs by disc diffusion method.
In assay [8] the test system is Candida albicans. Briefly: Antifungal activity against Candida albicans after 48 hrs by broth dilution technique. In kind it is functional.
The test system of assay [9] is Streptococcus pyogenes. The assay is described as follows: Antibacterial activity against Streptococcus pyogenes clinical isolate after 24 hrs by disc diffusion method. In kind it is functional.
The subject of assay [10] is Staphylococcus aureus. The assay is described as follows: Antibacterial activity against Staphylococcus aureus ATCC 25923 after 24 hrs by broth dilution technique. In kind it is functional. The conditions noted are these: ATCC-25923, 24 h.
Assay [11] deals with Aspergillus fumigatus. Briefly: Antifungal activity against Aspergillus fumigatus after 3 to 4 days by disc diffusion method. In kind it is functional.
Assay [12] concerns Pseudomonas aeruginosa. Briefly: Antibacterial activity against Pseudomonas aeruginosa ATCC 27853 after 24 hrs by broth dilution technique. Particulars: ATCC-27853, 24 h.
Assay [13] has as its system Trichophyton mentagrophytes. Briefly: Antifungal activity against Trichophyton mentagrophytes after 48 hrs by broth dilution technique. In kind it is functional.
Assay [14] has as its system Streptococcus pyogenes. Briefly: Antibacterial activity against Streptococcus pyogenes clinical isolate after 24 hrs by broth dilution technique. In kind it is functional.
Assay [15] relates to Klebsiella pneumoniae. The assay is described as follows: Antibacterial activity against Klebsiella pneumoniae clinical isolate after 24 hrs by disc diffusion method. In kind it is functional.
Assay [16] relates to Escherichia coli. The assay is described as follows: Antibacterial activity against Escherichia coli ATCC 25922 after 24 hrs by broth dilution technique. In kind it is functional. Particulars: ATCC-25922, 24 h.
Assay [17] deals with Aspergillus fumigatus. The assay is described as follows: Antifungal activity against Aspergillus fumigatus after 48 hrs by broth dilution technique. In kind it is functional.
The test system of assay [18] is Talaromyces marneffei. The assay is described as follows: Antifungal activity against Penicillium marneffei after 48 hrs by broth dilution technique. In kind it is functional.

In the case of `C=CCCCCCCCCC(=O)Nc1ccccc1O`, the “diameter of the inhibition zone (DIZ)” value with Candida albicans [1] is recorded as 12.5 mm; in the assay on Talaromyces marneffei [2], 8.9 mm; in the assay on Staphylococcus aureus [4] it was 10.9 mm; with Escherichia coli [5], 12.7 mm; in assay [6], 8.3 mm; with Pseudomonas aeruginosa [7], 14.3 mm. Besides, the “diameter of the inhibition zone (DIZ)” value in the assay on Streptococcus pyogenes [9] is listed as 11.1 mm; in the assay on Aspergillus fumigatus [11], 9.2 mm. In addition, the MBC (commonly the smallest concentration meeting the test's criterion for killing) against Klebsiella pneumoniae [3] was found to be 100 µg/mL (≈ 363 µM). Moreover, the minimum inhibitory concentration (MIC) – broadly, the least concentration at which growth counts as inhibited – amounted to 100 µg/mL (≈ 363 µM) against Klebsiella pneumoniae [3], 50 µg/mL (≈ 182 µM) against Candida albicans [8] and 100 µg/mL (≈ 363 µM) against Staphylococcus aureus [10]. For the same compound, in the assay on Candida albicans [8], the minimal fungicidal concentration (MFC) (in general, the lowest tested concentration that kills the fungus rather than only halting it) amounted to 100 µg/mL (≈ 363 µM).

With `CCCCCC[C@@H](O)C/C=C\CCCCCCCC(=O)N(C(=O)NC1CCCCC1)C1CCCCC1`, the “diameter of the inhibition zone (DIZ)” value with Candida albicans [1] is given as 18.3 mm; in the assay with Staphylococcus aureus [4], 18.5 mm; in the assay on Escherichia coli [5], 20.7 mm; in [6] it was 13.1 mm; in the assay on Pseudomonas aeruginosa [7], 23.2 mm; with Klebsiella pneumoniae [15], 17.5 mm. Moreover, the entries for the “diameter of the inhibition zone (DIZ)” value with Streptococcus pyogenes [9] and in the assay with Aspergillus fumigatus [11] were 19.1 mm and 14.9 mm, respectively. For the same compound, the MBC with Pseudomonas aeruginosa [12], against Klebsiella pneumoniae [3], in the assay on Streptococcus pyogenes [14], against Escherichia coli [16] and against Staphylococcus aureus [10] was 100 µg/mL (≈ 198 µM) throughout. Also, the minimum inhibitory concentration (MIC) against Pseudomonas aeruginosa [12] was determined as 50 µg/mL (≈ 99 µM); in the assay on Klebsiella pneumoniae [3] it was 50 µg/mL (≈ 99 µM); in assay [13], 25 µg/mL (≈ 49.5 µM); against Candida albicans [8], 25 µg/mL (≈ 49.5 µM); against Streptococcus pyogenes [14] it was 50 µg/mL (≈ 99 µM); in the assay with Escherichia coli [16] it was 50 µg/mL (≈ 99 µM). Further, the MIC against Aspergillus fumigatus [17] worked out at 25 µg/mL (≈ 49.5 µM); against Staphylococcus aureus [10], 50 µg/mL (≈ 99 µM). Moreover, the MFC in [13] was found to be 100 µg/mL (≈ 198 µM); against Candida albicans [8], 50 µg/mL (≈ 99 µM); in the assay with Aspergillus fumigatus [17], 100 µg/mL (≈ 198 µM).

With `CCCCCC[C@@H](O)C/C=C\CCCCCCCC(=O)Nc1ccccc1O`, the “diameter of the inhibition zone (DIZ)” value in the assay on Candida albicans [1] is on record as 16.2 mm; in the assay with Talaromyces marneffei [2], 10.1 mm; in the assay on Staphylococcus aureus [4] it was 15.6 mm; with Escherichia coli [5] it was 17.7 mm; in assay [6] it was 10.5 mm; in the assay on Pseudomonas aeruginosa [7], 15.2 mm. In addition, the “diameter of the inhibition zone (DIZ)” value in the assay on Klebsiella pneumoniae [15] is listed as 14.7 mm; in the assay with Streptococcus pyogenes [9], 16.1 mm; in the assay with Aspergillus fumigatus [11], 12.8 mm. In addition, the MBC against Pseudomonas aeruginosa [12], against Streptococcus pyogenes [14], in the assay with Escherichia coli [16] and against Staphylococcus aureus [10] was 100 µg/mL (≈ 257 µM) each time. Besides, the MIC in the assay with Pseudomonas aeruginosa [12] was found to be 25 µg/mL (≈ 64.2 µM); in [13], 50 µg/mL (≈ 128 µM); in the assay with Candida albicans [8] it was 25 µg/mL (≈ 64.2 µM); in the assay on Streptococcus pyogenes [14] it was 50 µg/mL (≈ 128 µM); in the assay with Escherichia coli [16], 25 µg/mL (≈ 64.2 µM); against Talaromyces marneffei [18] it was 50 µg/mL (≈ 128 µM). Further, the MIC in the assay with Aspergillus fumigatus [17] and against Staphylococcus aureus [10] was 50 µg/mL (≈ 128 µM) each time. Further, the MFC in assay [13] worked out at 100 µg/mL (≈ 257 µM); against Candida albicans [8], 50 µg/mL (≈ 128 µM); against Talaromyces marneffei [18], 100 µg/mL (≈ 257 µM); in the assay on Aspergillus fumigatus [17], 100 µg/mL (≈ 257 µM).

With `COC1=CC(=O)C[C@@H](C)[C@]12Oc1c(Cl)c(OC)cc(OC)c1C2=O` [GRISEOFULVIN], the “diameter of the inhibition zone (DIZ)” value in the assay with Candida albicans [1] is recorded as 30 mm; in the assay on Talaromyces marneffei [2], 20 mm; in assay [6] it was 24 mm; in the assay on Aspergillus fumigatus [11], 27 mm. Moreover, the MFC (in assay [13]; against Candida albicans [8]; in the assay with Talaromyces marneffei [18]; against Aspergillus fumigatus [17]) was 12.5 µg/mL (≈ 35.4 µM) throughout. Also, the MIC (in [13]; in the assay with Candida albicans [8]; with Talaromyces marneffei [18]; against Aspergillus fumigatus [17]) was 6.25 µg/mL (≈ 17.7 µM) each time.

Regarding `C=CCCCCCCCCC(=O)N(C(=O)NC1CCCCC1)C1CCCCC1`, the “diameter of the inhibition zone (DIZ)” value in the assay with Candida albicans [1] is listed as 12.1 mm; in the assay on Escherichia coli [5], 10.6 mm; in the assay with Pseudomonas aeruginosa [7] it was 12.1 mm. For the same compound, the MBC in the assay on Pseudomonas aeruginosa [12] and in the assay on Escherichia coli [16] was 100 µg/mL (≈ 256 µM) throughout. In addition, the minimum inhibitory concentration (MIC) in the assay on Pseudomonas aeruginosa [12] came to 50 µg/mL (≈ 128 µM); in the assay on Candida albicans [8] it was 50 µg/mL (≈ 128 µM); against Escherichia coli [16], 100 µg/mL (≈ 256 µM). Moreover, the MFC with Candida albicans [8] was determined as 100 µg/mL (≈ 256 µM).

`O=C(O)c1cn(C2CC2)c2cc(N3CCNCC3)c(F)cc2c1=O` [CIPROFLOXACIN] registered an MIC against Pseudomonas aeruginosa [12] of 6.5 µg/mL (≈ 19.6 µM). Further, the “diameter of the inhibition zone (DIZ)” value was 22 mm in the assay on Staphylococcus aureus [4] and 32 mm with Pseudomonas aeruginosa [7].

Consider `CCCCCCCC/C=C\CCCCCCCC(=O)N(C(=O)NC1CCCCC1)C1CCCCC1`, for which the “diameter of the inhibition zone (DIZ)” value with Candida albicans [1] came out at 13.9 mm; with Staphylococcus aureus [4], 13.4 mm; in the assay on Escherichia coli [5], 15.4 mm; in the assay with Pseudomonas aeruginosa [7], 17.2 mm; with Klebsiella pneumoniae [15], 12.8 mm; with Streptococcus pyogenes [9] it was 13.5 mm. In addition, the “diameter of the inhibition zone (DIZ)” value in the assay on Aspergillus fumigatus [11] is on record as 9.9 mm. The minimal bactericidal concentration (MBC) with Pseudomonas aeruginosa [12] and with Escherichia coli [16] was 100 µg/mL (≈ 205 µM) each time. The minimal inhibitory concentration (MIC) against Pseudomonas aeruginosa [12] is 100 µg/mL (≈ 205 µM); in the assay with Candida albicans [8], 50 µg/mL (≈ 102 µM); with Escherichia coli [16] it was 100 µg/mL (≈ 205 µM); against Aspergillus fumigatus [17], 50 µg/mL (≈ 102 µM). For the same compound, the MFC in the assay on Candida albicans [8] and against Aspergillus fumigatus [17] was 100 µg/mL (≈ 205 µM) each time.

For the compound `CCCCCCCC/C=C\CCCCCCCC(=O)Nc1ccccc1O`, the “diameter of the inhibition zone (DIZ)” value worked out at 15.3 mm in the assay on Candida albicans [1]; 9.2 mm in the assay on Talaromyces marneffei [2]; 11.1 mm in the assay with Staphylococcus aureus [4]; 13.2 mm in the assay on Escherichia coli [5]; 8.9 mm in [6]; 15.2 mm in the assay on Pseudomonas aeruginosa [7]. Also, the results for the “diameter of the inhibition zone (DIZ)” value with Klebsiella pneumoniae [15], in the assay on Streptococcus pyogenes [9] and with Aspergillus fumigatus [11] were 10.8 mm, 11.4 mm and 11.7 mm, respectively. Further, the minimal bactericidal concentration (MBC) in the assay with Pseudomonas aeruginosa [12], in the assay on Streptococcus pyogenes [14], in the assay on Escherichia coli [16] and against Staphylococcus aureus [10] was 100 µg/mL (≈ 268 µM) each time. The MIC is 100 µg/mL (≈ 268 µM) against Pseudomonas aeruginosa [12]; 50 µg/mL (≈ 134 µM) in assay [13]; 50 µg/mL (≈ 134 µM) in the assay on Candida albicans [8]; 50 µg/mL (≈ 134 µM) with Streptococcus pyogenes [14]; 100 µg/mL (≈ 268 µM) against Escherichia coli [16]; 50 µg/mL (≈ 134 µM) against Talaromyces marneffei [18]. Further, the results for the MIC against Aspergillus fumigatus [17] and against Staphylococcus aureus [10] were 25 µg/mL (≈ 66.9 µM) and 100 µg/mL (≈ 268 µM), respectively. Besides, the MFC came out at 100 µg/mL (≈ 268 µM) in [13], 50 µg/mL (≈ 134 µM) in the assay on Candida albicans [8], 100 µg/mL (≈ 268 µM) against Talaromyces marneffei [18] and 100 µg/mL (≈ 268 µM) in the assay on Aspergillus fumigatus [17].
